Reference: US10618918B2, “Substituted boronic acids as antimicrobials” (priority 2015, dated 2020)
Read-outs that look alike come from different tables or passages of the source.

Legend:
[1] = system: ec308 SHV-5; experiment: Aztreonam potentiation (MPC@4), strain ec308 SHV-5; settings: minimum BLI concentration inhibiting growth with aztreonam 4 μg/mL; tested up to 40 μg/mL
[2] = system: KP1086 OXA-48; experiment: Biapenem potentiation (MPC@1), strain KP1086 OXA-48; assay type: cell-based; settings: minimum BLI concentration inhibiting growth with biapenem 1 μg/mL; tested up to 40 μg/mL
Description: (§1) Biapenem was present in the test medium at 1 μg/mL. […] Table 3 summarizes the BLI potency of biapenem potentiation (MPC@1) for two strains overexpressing class A (KPC) and class D (OXA-48) carbapenemases. Biapenem MIC for each strain is also shown.

[3] = biological target: purified class A, C and D enzymes (β-lactamases) (Klebsiella pneumoniae, UniProt Q9F663); experiment: biochemical; assay type: biochemical
[4] = biological target: purified class A, C and D enzymes (β-lactamases) (Klebsiella pneumoniae, UniProt Q6XEC0); experiment: biochemical; assay type: biochemical
[5] = biological target: purified class A, C and D enzymes (β-lactamases) (Escherichia coli, UniProt Q9L5C7); experiment: biochemical; assay type: biochemical
[6] = system: ec302 TEM-10; experiment: Aztreonam potentiation (MPC@4), strain ec302 TEM-10; settings: minimum BLI concentration inhibiting growth with aztreonam 4 μg/mL; tested up to 40 μg/mL
[7] = system: KP1004 KPC-2; experiment: Biapenem potentiation (MPC@1), strain KP1004 KPC-2; assay type: cell-based; settings: minimum BLI concentration inhibiting growth with biapenem 1 μg/mL; tested up to 40 μg/mL
Description: as §1

[8] = system: KP1010 SHV-12; experiment: Aztreonam potentiation (MPC@4), strain KP1010 SHV-12; settings: minimum BLI concentration inhibiting growth with aztreonam 4 μg/mL; tested up to 40 μg/mL
[9] = system: KP1004 KPC-2; experiment: Aztreonam potentiation (MPC@4), strain KP1004 KPC-2; settings: minimum BLI concentration inhibiting growth with aztreonam 4 μg/mL; tested up to 40 μg/mL
[10] = system: KP1005 CTX-M-14; experiment: Tigemonam potentiation (MPC@4), strain KP1005 CTX-M-14; settings: minimum BLI concentration inhibiting growth with tigemonam 4 μg/mL; tested up to 40 μg/mL
[11] = system: ECL1002; experiment: Aztreonam potentiation (MPC@4), strain ECL1002; settings: minimum BLI concentration inhibiting growth with aztreonam 4 μg/mL; tested up to 40 μg/mL
[12] = system: EC1010 CMY-6; experiment: Aztreonam potentiation (MPC@4), strain EC1010 CMY-6; settings: minimum BLI concentration inhibiting growth with aztreonam 4 μg/mL; tested up to 40 μg/mL
[13] = system: KP1009 CTX-M-15; experiment: Aztreonam potentiation (MPC@4), strain KP1009 CTX-M-15; settings: minimum BLI concentration inhibiting growth with aztreonam 4 μg/mL; tested up to 40 μg/mL
[14] = system: AB1053 OXA-72; experiment: Meropenem potentiation (MPC@8), strain AB1053 OXA-72; assay type: cell-based, Acinetobacter baumannii; settings: minimum BLI concentration inhibiting growth with meropenem 8 μg/mL; tested up to 20 μg/mL
[15] = biological target: purified class A, C and D enzymes (β-lactamases) (Enterobacter cloacae, UniProt P05364); experiment: biochemical; assay type: biochemical
[16] = biological target: T1, purified class A, C and D enzymes (β-lactamases) (Pseudomonas aeruginosa, UniProt P24735); experiment: biochemical; assay type: biochemical
T1 construct: rows headed: Ki (Pa-AmpC, NCF), uM; other: purified Pa-AmpC; nitrocefin (NCF) as reporter substrate

[17] = biological target: T2, purified class A, C and D enzymes (β-lactamases) (Acinetobacter baumannii, UniProt Q9L4P2); experiment: biochemical; assay type: biochemical; settings: purified OXA-23; nitrocefin (NCF) as reporter substrate
T2 construct: rows headed: Ki (OXA-23, NCF), uM; other: purified OXA-23; nitrocefin (NCF) as reporter substrate

[18] = system: AB1054 OXA-23; experiment: Meropenem potentiation (MPC@8), strain AB1054 OXA-23; assay type: cell-based, Acinetobacter baumannii; settings: minimum BLI concentration inhibiting growth with meropenem 8 μg/mL; tested up to 20 μg/mL
[19] = purified KPC-2, nitrocefin (NCF) as reporter substrate
[20] = purified OXA-48, nitrocefin (NCF) as reporter substrate
[21] = purified CTX-M-14, nitrocefin (NCF) as reporter substrate

T2 sequence (Q9L4P2 whole entry): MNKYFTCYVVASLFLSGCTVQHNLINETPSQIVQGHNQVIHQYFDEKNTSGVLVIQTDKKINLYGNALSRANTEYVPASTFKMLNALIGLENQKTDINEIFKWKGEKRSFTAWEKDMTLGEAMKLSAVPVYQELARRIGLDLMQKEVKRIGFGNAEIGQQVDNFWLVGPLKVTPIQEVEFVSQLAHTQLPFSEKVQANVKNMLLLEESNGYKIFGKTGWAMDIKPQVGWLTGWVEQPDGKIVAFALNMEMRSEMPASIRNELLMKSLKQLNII
Chain of purified class A, C and D enzymes (β-lactamases) (Escherichia coli, UniProt Q9L5C7) (Q9L5C7 entry or part of it): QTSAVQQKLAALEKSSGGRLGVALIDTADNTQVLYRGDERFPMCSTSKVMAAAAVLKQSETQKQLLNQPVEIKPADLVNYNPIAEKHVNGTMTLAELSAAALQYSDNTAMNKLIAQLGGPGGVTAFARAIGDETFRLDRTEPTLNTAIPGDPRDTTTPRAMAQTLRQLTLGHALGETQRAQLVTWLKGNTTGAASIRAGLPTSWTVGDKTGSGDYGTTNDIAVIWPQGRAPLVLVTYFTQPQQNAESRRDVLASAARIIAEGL
Chain of purified class A, C and D enzymes (β-lactamases) (Enterobacter cloacae, UniProt P05364) (P05364 21-381): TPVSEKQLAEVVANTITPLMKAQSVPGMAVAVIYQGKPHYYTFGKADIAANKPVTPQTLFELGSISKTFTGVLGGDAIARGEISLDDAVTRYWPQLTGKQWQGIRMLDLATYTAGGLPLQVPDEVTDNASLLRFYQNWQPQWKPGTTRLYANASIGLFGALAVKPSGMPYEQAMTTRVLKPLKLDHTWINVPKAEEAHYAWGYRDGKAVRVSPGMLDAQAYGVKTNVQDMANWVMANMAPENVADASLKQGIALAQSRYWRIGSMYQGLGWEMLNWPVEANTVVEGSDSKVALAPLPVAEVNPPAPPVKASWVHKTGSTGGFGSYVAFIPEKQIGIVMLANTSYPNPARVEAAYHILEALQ
T1 sequence (P24735 whole entry): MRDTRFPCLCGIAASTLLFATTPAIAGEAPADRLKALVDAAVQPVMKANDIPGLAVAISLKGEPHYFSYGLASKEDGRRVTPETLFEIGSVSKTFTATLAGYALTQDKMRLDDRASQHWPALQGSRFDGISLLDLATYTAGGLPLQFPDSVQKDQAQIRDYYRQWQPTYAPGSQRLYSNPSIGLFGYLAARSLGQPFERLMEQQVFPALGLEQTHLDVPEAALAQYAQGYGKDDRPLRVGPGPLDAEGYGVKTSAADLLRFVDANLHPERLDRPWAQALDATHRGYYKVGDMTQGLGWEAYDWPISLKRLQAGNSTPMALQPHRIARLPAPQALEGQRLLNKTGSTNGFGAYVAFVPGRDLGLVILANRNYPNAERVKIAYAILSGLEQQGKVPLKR

Compound	AZT MPC4 SHV-5 ec308 [1]	BPM MPC1 OXA-48 KP1086 [2]	AZT MPC4 TEM-10 ec302 [6]	BPM MPC1 KP1004 KPC-2 [7]	AZT MPC4 SHV-12 KP1010 [8]	AZT MPC4 KPC-2 KP1004 [9]	TIG MPC4 CTX-M-14 KP1005 [10]	AZT MPC4 ECL1002 [11]	AZT MPC4 CMY-6 EC1010 [12]	AZT MPC4 CTX-M-15 KP1009 [13]	MPM MPC8 AB1053 OXA-72 [14]	Ki (P99, NCF), uM [15]	Ki [16]	Ki [17]	Ki (KPC-2, NCF), uM [3, 19]	Ki (OXA-48, NCF), uM [4, 20]	Ki (CTX-M-14, NCF), uM [5, 21]	MPM MPC8 AB1054 OXA-23 [18]	also measured
O=C(O)[C@H]1/C(=C/CO)O[C@@H]2CC(=O)N21 [Clavulanic Acid, reference compound]	X (X = MPC@4 ≤ 5 μg/mL)	Z (Z = MPC@1 > 20 μg/mL)	X (X = MPC@4 ≤ 5 μg/mL)	Y (Y = 5 μg/mL < MPC@1 ≤ 20 μg/mL)	X (X = MPC@4 ≤ 5 μg/mL)	Z (Z = MPC@4 > 20 μg/mL)	X (X = MPC@4 ≤ 5 μg/mL)	Z (Z = MPC@4 > 20 μg/mL)	Z (Z = MPC@4 > 20 μg/mL)	X (X = MPC@4 ≤ 5 μg/mL)	–	–	–	–	–	–	–	–	Ki (KPC-2, NCF), uM [3]: Z (key: X = Ki ≤ 0.1 μM; Y = 0.1 μM < Ki ≤ 1 μM; Z = Ki > 1 μM); Ki (OXA-48, NCF), uM [4]: Z (key: X = Ki ≤ 0.1 μM; Y = 0.1 μM < Ki ≤ 1 μM; Z = Ki > 1 μM); Ki (CTX-M-14, NCF), uM [5]: X (key: X = Ki ≤ 0.1 μM; Y = 0.1 μM < Ki ≤ 1 μM; Z = Ki > 1 μM)
COc1ccc2c(c1C(=O)[O-])O[B-](O)(O)[C@@H](C)C2.[Na+].[Na+] [Compound 11, Disodium; (3S)-4,4-dihydroxy-8-methoxy-3-methyl-5-oxa-4-boranuidabicyclo[4.4.0]deca-1(6),7,9-triene-7-carboxylate]	Y (Y = 5 μg/mL < MPC@4 ≤ 20 μg/mL)	Y (Y = 5 μg/mL < MPC@1 ≤ 20 μg/mL)	Y (Y = 5 μg/mL < MPC@4 ≤ 20 μg/mL)	X (X = MPC@1 ≤ 5 μg/mL)	Y (Y = 5 μg/mL < MPC@4 ≤ 20 μg/mL)	Y (Y = 5 μg/mL < MPC@4 ≤ 20 μg/mL)	Z (Z = MPC@4 > 20 μg/mL)	Y (Y = 5 μg/mL < MPC@4 ≤ 20 μg/mL)	X (X = MPC@4 ≤ 5 μg/mL)	Y (Y = 5 μg/mL < MPC@4 ≤ 20 μg/mL)	X (X = MPC@1 ≤ 5 μg/mL)	X (key: X = Ki ≤ 0.1 μM; Y = 0.1 μM < Ki ≤ 1 μM; Z = Ki > 1 μM)	< 100 nM	< 100 nM	X (X = Ki ≤ 0.1 μM)	X (X = Ki ≤ 0.1 μM)	X (X = Ki ≤ 0.1 μM)	Y (Y = 5 μg/mL < MPC@1 ≤ 20 μg/mL)	–
COc1ccc2c(c1C(=O)[O-])O[B-](O)(O)[C@@H](CCO)C2.[Na+].[Na+] [Compound 12, Disodium; (3R)-4,4-dihydroxy-3-(2-hydroxyethyl)-8-methoxy-5-oxa-4-boranuidabicyclo[4.4.0]deca-1(6),7,9-triene-7-carboxylate]	Y (Y = 5 μg/mL < MPC@4 ≤ 20 μg/mL)	Y (Y = 5 μg/mL < MPC@1 ≤ 20 μg/mL)	Z (Z = MPC@4 > 20 μg/mL)	X (X = MPC@1 ≤ 5 μg/mL)	Y (Y = 5 μg/mL < MPC@4 ≤ 20 μg/mL)	Y (Y = 5 μg/mL < MPC@4 ≤ 20 μg/mL)	Z (Z = MPC@4 > 20 μg/mL)	Y (Y = 5 μg/mL < MPC@4 ≤ 20 μg/mL)	Y (Y = 5 μg/mL < MPC@4 ≤ 20 μg/mL)	Y (Y = 5 μg/mL < MPC@4 ≤ 20 μg/mL)	Y (Y = 5 μg/mL < MPC@1 ≤ 20 μg/mL)	X (key: X = Ki ≤ 0.1 μM; Y = 0.1 μM < Ki ≤ 1 μM; Z = Ki > 1 μM)	100 to 1000 nM	100 to 1000 nM	X (X = Ki ≤ 0.1 μM)	X (X = Ki ≤ 0.1 μM)	X (X = Ki ≤ 0.1 μM)	Y (Y = 5 μg/mL < MPC@1 ≤ 20 μg/mL)	–
N#CCOc1ccc2c(c1C(=O)O)OB(O)CC2 [Compound 47, 7-(Cyanomethoxy)-2-hydroxy-3,4-dihydro-1,2-benzoxaborinine-8-carboxylic acid]	X (X = MPC@4 ≤ 5 μg/mL)	X (X = MPC@1 ≤ 5 μg/mL)	X (X = MPC@4 ≤ 5 μg/mL)	X (X = MPC@1 ≤ 5 μg/mL)	X (X = MPC@4 ≤ 5 μg/mL)	X (X = MPC@4 ≤ 5 μg/mL)	X (X = MPC@4 ≤ 5 μg/mL)	X (X = MPC@4 ≤ 5 μg/mL)	X (X = MPC@4 ≤ 5 μg/mL)	X (X = MPC@4 ≤ 5 μg/mL)	X (X = MPC@1 ≤ 5 μg/mL)	–	–	< 100 nM	X (X = Ki ≤ 0.1 μM)	X (X = Ki ≤ 0.1 μM)	–	X (X = MPC@1 ≤ 5 μg/mL)	Ki (P99, NCF), uM ([15]; purified P99, nitrocefin (NCF) as reporter substrate): X (X = Ki ≤ 0.1 μM); Ki ([16]; purified Pa-AmpC, nitrocefin (NCF) as reporter substrate, read-out: Ki (Pa-AmpC, NCF)): < 100 nM
N#Cc1ccc2c(c1C(=O)[O-])O[B-](O)(O)CC2.[Na+].[Na+] [Compound 54, Disodium; 8-cyano-4,4-dihydroxy-5-oxa-4-boranuidabicyclo[4.4.0]deca-1(6),7,9-triene-7-carboxylate]	Z (Z = MPC@4 > 20 μg/mL)	Z (Z = MPC@1 > 20 μg/mL)	Z (Z = MPC@4 > 20 μg/mL)	X (X = MPC@1 ≤ 5 μg/mL)	Z (Z = MPC@4 > 20 μg/mL)	Z (Z = MPC@4 > 20 μg/mL)	Z (Z = MPC@4 > 20 μg/mL)	Z (Z = MPC@4 > 20 μg/mL)	Y (Y = 5 μg/mL < MPC@4 ≤ 20 μg/mL)	Z (Z = MPC@4 > 20 μg/mL)	Z (Z = MPC@1 > 20 μg/mL)	Y (key: X = Ki ≤ 0.1 μM; Y = 0.1 μM < Ki ≤ 1 μM; Z = Ki > 1 μM)	> 1000 nM	100 to 1000 nM	Z (Z = Ki > 1 μM)	X (X = Ki ≤ 0.1 μM)	–	Z (Z = MPC@1 > 20 μg/mL)	–
